In patent US7709458B2, “Method for inhibiting cancer cell proliferation or increasing cancer cell apoptosis” (priority 2004, dated 2010):

What was measured:
[1] = test system: H508 human colon cancer cells; assay: H508 colon cancer cell proliferation assay (sulforhodamine B colorimetric assay); format: cell-based; settings: for effect on basal H508 cell proliferation / effect on EGF-induced H508 cell proliferation / effect on acetylcholine-induced H508 cell proliferation: 50 μM; for effect on basal H508 cell proliferation / potency in reducing acetylcholine- and EGF-stimulated H508 proliferation compared with c-di-GMP: 5 days incubation; for effect on EGF-induced H508 cell proliferation: EGF 1 ng/ml; for effect on EGF-induced H508 cell proliferation / effect on acetylcholine-induced H508 cell proliferation: 5 days; for effect on acetylcholine-induced H508 cell proliferation: acetylcholine 300 μM
Method: H508 colon cancer cell culture. H508 human colon cancer cells were grown in RPMI 1640 (ATCC) supplemented with 10% fetal bovine serum (FBS) (Biowhittaker). Adherent cultures were passaged weekly at subconfluence after trypsinization. Cultures were maintained in incubators at 37° C. in an atmosphere of 5% CO2 and 95% air.
H508 colon cancer cell proliferation assay. Cell proliferation was determined using the sulforhodamine B (SRB) colorimetric assay (Skehan et al., 1990). Cells were seeded in 96-well plates (Corning Glass Works, Corning, N.Y.) at approx. 10% confluence and allowed to attach for 24 h. Growth medium was removed and fresh medium without FBS and containing the indicated concentration of test agent was added. Cells were incubated for the indicated periods of time at 37° C. in an atmosphere of 5% CO2 and 95% air. After incubation, cells were treated for 30 min with 0.4% (w/v) SRB dissolved in 1% acetic acid. Protein-bound dye was extracted with unbuffered 10 mM Tris base. Absorbance was measured at 560 nm using a computer-interfaced, 96-well microtiter plate reader.
c-di-GMP inhibits proliferation of human colon cancer cells. The potential therapeutic actions of c-di-GMP were examined on basal and growth factor-stimulated proliferation of cells derived from a moderately differentiated human cecal adenocarcinoma (H508 cells) that express M3 muscarinic (M3R) and epidermal growth factor (EGF) receptors (EGFR) (Cheng et al., 2003). Cell proliferation was determined using the validated sulforhodamine B (SRB) calorimetric assay (Skehan et al., 1990). H508 cells were incubated in the absence or presence of a growth stimulant, acetylcholine (300 μM) and EGF (1 ng/ml) alone or with increasing concentrations of c-di-GMP (0.5-50 μM). After a 5-day incubation, the highest concentration of c-di-GMP tested, 50 μM, reduced basal H508 cell proliferation by approx. 15% (FIG. 1; p<0.05 compared to control, Student's unpaired t-test).

[2] = patients with Stage II or III disease; adjuvant chemotherapy (Bresalier, 2002); cited from earlier work

With `Nc1nc2c(ncn2[C@@H]2O[C@@H]3COP(=O)(O)O[C@H]3[C@H]2O)c(=O)[nH]1` [cGMP, guanosine 3′,5′-cyclic monophosphate, reference compound] the “effect on basal H508 cell proliferation” value [1] was “neither of the guanosine analogs tested, cGMP and 5′-GMP, altered basal proliferation”, the “effect on EGF-induced H508 cell proliferation” value [1] was “reduced” and the “effect on acetylcholine-induced H508 cell proliferation” value [1] was “reduced”. For the same compound, the “potency in reducing acetylcholine- and EGF-stimulated H508 proliferation compared with c-di-GMP” value [1] was “less potent in this action than c-di-GMP”.

For `Nc1nc2c(ncn2[C@@H]2O[C@H](COP(=O)(O)O)[C@@H](O)[C@H]2O)c(=O)[nH]1` [5′-GMP, guanosine 5′-monophosphate, reference compound], the “effect on basal H508 cell proliferation” value [1] was “neither of the guanosine analogs tested, cGMP and 5′-GMP, altered basal proliferation”, the “effect on EGF-induced H508 cell proliferation” value [1] was “reduced” and the “effect on acetylcholine-induced H508 cell proliferation” value [1] was “reduced”. For the same compound, the “potency in reducing acetylcholine- and EGF-stimulated H508 proliferation compared with c-di-GMP” value [1] was “less potent in this action than c-di-GMP”.

In the case of `O=c1[nH]cc(F)c(=O)[nH]1` [5-fluorouracil], the “reduction of colon cancer mortality” value [2] is listed as 33% and the “reduction of colon cancer recurrence” value [2] is listed as 42%.
